Experimental findings from US20250197372A1 (priority 2020, published 2025) are described below.

Where two headings read alike, the source gives them in different places.

The test has as its target T1, recombinant alpha-glucosidase I (human full-length glucosidase I, Glu 1) (Homo sapiens, UniProt Q13724).
T1 construct: 6-His (C); made in house; host or cells: HEK-293T cells transduced with BacMam virus (virus raised in Sf9)
T1 sequence (Q13724 1-837): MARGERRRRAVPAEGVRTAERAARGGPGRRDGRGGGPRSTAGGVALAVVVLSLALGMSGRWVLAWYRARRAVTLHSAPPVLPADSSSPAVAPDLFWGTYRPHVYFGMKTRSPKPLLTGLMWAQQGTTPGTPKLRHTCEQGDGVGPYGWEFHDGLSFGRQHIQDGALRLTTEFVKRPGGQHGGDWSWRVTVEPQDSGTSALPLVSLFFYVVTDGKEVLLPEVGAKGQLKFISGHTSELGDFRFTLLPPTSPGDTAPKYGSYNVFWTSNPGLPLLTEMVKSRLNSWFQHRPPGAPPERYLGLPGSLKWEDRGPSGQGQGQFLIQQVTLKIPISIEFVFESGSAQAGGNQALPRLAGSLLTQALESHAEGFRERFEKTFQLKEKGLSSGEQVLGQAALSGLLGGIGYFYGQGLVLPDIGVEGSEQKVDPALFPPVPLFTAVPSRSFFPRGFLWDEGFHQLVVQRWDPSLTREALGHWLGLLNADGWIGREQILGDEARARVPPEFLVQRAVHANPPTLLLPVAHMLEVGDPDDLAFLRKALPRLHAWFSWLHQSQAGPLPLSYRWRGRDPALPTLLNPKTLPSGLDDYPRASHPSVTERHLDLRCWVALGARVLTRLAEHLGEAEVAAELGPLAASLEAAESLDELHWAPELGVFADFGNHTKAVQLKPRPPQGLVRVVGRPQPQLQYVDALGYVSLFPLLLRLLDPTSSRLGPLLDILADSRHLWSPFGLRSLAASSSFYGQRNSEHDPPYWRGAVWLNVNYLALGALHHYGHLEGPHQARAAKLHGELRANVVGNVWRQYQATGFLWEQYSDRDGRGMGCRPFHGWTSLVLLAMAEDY
The experiment in a line: Alpha-glucosidase I assay (Amplex Red glucose detection, synthetic trisaccharide substrate). In kind it is biochemical. The procedure, abridged:
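Human full-length glucosidase I, His-tagged, […] and Ni-purified. Enzyme preincubated with compound dilutions 60 min at 37° C, then synthetic trisaccharide substrate 90 min at 37° C; stopped with 1.5M Tris pH 8.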

The mark [1] stands for this setting: Glucosidase 1, read-out: Glu 1 IC50.

As usually defined, the IC50 is the concentration that inhibits the measured activity by half. Regarding `COc1cc(NCCCCCCN2C[C@H](O)[C@@H](O)[C@H](O)[C@H]2CO)cc(C2=CCCCC2)c1` [Compound 1149, (2R,3R,4R,5S)-1-(6-{[3-(cyclohex-1-en-1-yl)-5-methoxy-phenyl]amino}hexyl)-2-(hydroxymethyl)piperidine-3,4,5-triol], under setting [1], the IC50 came to 0.264 µM.

For the molecule `COc1cc(NCCCCCCN2C[C@H](O)[C@@H](O)[C@H](O)[C@H]2CO)cc(-c2ccccc2)c1` [Compound 1150, (2R,3R,4R,5S)-2-(hydroxymethyl)-1-[6-({5-methoxy-[1,1′-biphenyl]-3-yl}amino)hexyl]piperidine-3,4,5-triol], under setting [1], the IC50 was 0.08 µM.

Regarding `CC(C)(C)c1cc(NCCCCCCN2C[C@H](O)[C@@H](O)[C@H](O)[C@H]2CO)cc(-c2ncccn2)c1` [Compound 1151, (2R,3R,4R,5S)-1-(6-{[3-tert-butyl-5-(pyrimidin-2-yl)phenyl]amino}hexyl)-2-(hydroxymethyl)piperidine-3,4,5-triol], the IC50 under setting [1] came to 0.099 µM.

Regarding `COc1cc(NCCc2ccc(CCN3C[C@H](O)[C@@H](O)[C@H](O)[C@H]3CO)cc2)cc(-c2ccco2)c1` [Compound 1153, (2R,3R,4R,5S)-1-{2-[4-(2-{[3-(furan-2-yl)-5-methoxy-phenyl]amino}ethyl)phenyl]ethyl}-2-(hydroxymethyl)piperidine-3,4,5-triol], the concentration for half-maximal inhibition (IC50) under setting [1] came to 1.36 µM.

As to `COc1cc(NCCc2ccc(CCN3C[C@H](O)[C@@H](O)[C@H](O)[C@H]3CO)cc2)cc(C2=CCOCC2)c1` [Compound 1154, (2R,3R,4R,5S)-1-{2-[4-(2-{[3-(3,6-dihydro-2H-pyran-4-yl)-5-methoxyphenyl]amino}ethyl)phenyl]ethyl}-2-(hydroxymethyl)piperidine-3,4,5-triol], the IC50 under setting [1] amounted to 0.919 µM.

On to `COc1cc(NCCc2ccc(CCN3C[C@H](O)[C@@H](O)[C@H](O)[C@H]3CO)cc2)cc(C2=COCCO2)c1` [Compound 1155, (2R,3R,4R,5S)-1-{2-[4-(2-{[3-(5,6-dihydro-1,4-dioxin-2-yl)-5-methoxyphenyl]amino}ethyl)phenyl]ethyl}-2-(hydroxymethyl)piperidine-3,4,5-triol], for which, under setting [1], the IC50 is 1.25 µM.

Turning to `COc1cc(NCCc2ccc(CCN3C[C@H](O)[C@@H](O)[C@H](O)[C@H]3CO)cc2)cc(-c2ncccn2)c1` [Compound 1156, (2R,3R,4R,5S)-2-(hydroxymethyl)-1-{2-[4-(2-{[3-methoxy-5-(pyrimidin-2-yl)phenyl]amino}ethyl)phenyl]ethyl}piperidine-3,4,5-triol], the IC50 under setting [1] was determined as 1.27 µM.

Take `COc1cc(NCCc2ccc(CCN3C[C@H](O)[C@@H](O)[C@H](O)[C@H]3CO)cc2)cc(-c2cccnn2)c1` [Compound 1157, (2R,3R,4R,5S)-2-(hydroxymethyl)-1-{2-[4-(2-{[3-methoxy-5-(pyridazin-3-yl)phenyl]amino}ethyl)phenyl]ethyl}piperidine-3,4,5-triol]: the IC50 under setting [1] came out at 0.336 µM.

As to `OC[C@@H]1[C@@H](O)[C@H](O)[C@@H](O)CN1CCc1ccc(CCNc2cc(Cl)cc(-c3ccco3)c2)cc1` [Compound 1159, (2R,3R,4R,5S)-1-{2-[4-(2-{[3-chloro-5-(furan-2-yl)phenyl]amino}ethyl)phenyl]ethyl}-2-(hydroxymethyl)piperidine-3,4,5-triol], the IC50 under setting [1] came out at 0.183 µM.

For `OC[C@@H]1[C@@H](O)[C@H](O)[C@@H](O)CN1CCc1ccc(CCNc2cc(Cl)cc(C3=CCOCC3)c2)cc1` [Compound 1160, (2R,3R,4R,5S)-1-{2-[4-(2-{[3-chloro-5-(3,6-dihydro-2H-pyran-4-yl)phenyl]amino}ethyl)phenyl]ethyl}-2-(hydroxymethyl)piperidine-3,4,5-triol], the half-inhibitory concentration (IC50) under setting [1] stood at 1.57 µM.

Turning to `OC[C@@H]1[C@@H](O)[C@H](O)[C@@H](O)CN1CCc1ccc(CCNc2cc(Cl)cc(C3=COCCO3)c2)cc1` [Compound 1161, (2R,3R,4R,5S)-1-{2-[4-(2-{[3-chloro-5-(5,6-dihydro-1,4-dioxin-2-yl)phenyl]amino}ethyl)phenyl]ethyl}-2-(hydroxymethyl)piperidine-3,4,5-triol], the concentration for half-maximal inhibition (IC50) under setting [1] worked out at 0.729 µM.

With `OC[C@@H]1[C@@H](O)[C@H](O)[C@@H](O)CN1CCc1ccc(CCNc2cc(Cl)cc(-c3ncccn3)c2)cc1` [Compound 1162, (2R,3R,4R,5S)-1-{2-[4-(2-{[3-chloro-5-(pyrimidin-2-yl)phenyl]amino}ethyl)phenyl]ethyl}-2-(hydroxymethyl)piperidine-3,4,5-triol], the IC50 under setting [1] was determined as 0.508 µM.

`OC[C@@H]1[C@@H](O)[C@H](O)[C@@H](O)CN1CCc1ccc(CCNc2cc(Cl)cc(-c3cccnn3)c2)cc1` [Compound 1163, (2R,3R,4R,5S)-1-{2-[4-(2-{[3-chloro-5-(pyridazin-3-yl)phenyl]amino}ethyl)phenyl]ethyl}-2-(hydroxymethyl)piperidine-3,4,5-triol]: the concentration for half-maximal inhibition (IC50) was 0.211 µM.

As for `[N-]=[N+]=Nc1ccc(NCc2ccc(-c3ccc(CN4C[C@H](O)[C@@H](O)[C@H](O)[C@H]4CO)cc3)cc2)c([N+](=O)[O-])c1` [Compound 1166, (2R,3R,4R,5S)-1-[(4′-{[(4-azido-2-nitrophenyl)amino]methyl}-[1,1′-biphenyl]-4-yl)methyl]-2-(hydroxymethyl)piperidine-3,4,5-triol], the concentration for half-maximal inhibition (IC50) under setting [1] amounted to 0.184 µM.

Consider `[N-]=[N+]=Nc1ccc(NCc2cccc(CN3C[C@H](O)[C@@H](O)[C@H](O)[C@H]3CO)c2)c([N+](=O)[O-])c1` [Compound 1169, (2R,3R,4R,5S)-1-[(3-{[(4-azido-2-nitrophenyl)amino]methyl}phenyl)methyl]-2-(hydroxymethyl)piperidine-3,4,5-triol], for which, under setting [1], the IC50 was determined as 0.068 µM.

As to `[N-]=[N+]=Nc1ccc(NCc2ccc(CN3C[C@H](O)[C@@H](O)[C@H](O)[C@H]3CO)cc2)c([N+](=O)[O-])c1` [Compound 1170, (2R,3R,4R,5S)-1-[(4-{[(4-azido-2-nitrophenyl)amino]methyl}phenyl)methyl]-2-(hydroxymethyl)piperidine-3,4,5-triol], the IC50 under setting [1] came out at 0.004 µM.

For the molecule `[N-]=[N+]=Nc1ccc(NCCc2cc(CCN3C[C@H](O)[C@@H](O)[C@H](O)[C@H]3CO)ccc2C2CCCCC2)c([N+](=O)[O-])c1` [Compound 1171, (2R,3R,4R,5S)-1-[2-(3-{2-[(4-azido-2-nitrophenyl)amino]ethyl}-4-cyclohexylphenyl)ethyl]-2-(hydroxymethyl)piperidine-3,4,5-triol], the IC50 under setting [1] is 0.301 µM.

As to `[N-]=[N+]=Nc1ccc(NCCc2ccc(CCN3C[C@H](O)[C@@H](O)[C@H](O)[C@H]3CO)c3c2OCCO3)c([N+](=O)[O-])c1` [Compound 1173, (2R,3R,4R,5S)-1-[2-(8-{2-[(4-azido-2-nitrophenyl)amino]ethyl}-2,3-dihydro-1,4-benzodioxin-5-yl)ethyl]-2-(hydroxymethyl)piperidine-3,4,5-triol], under setting [1], the IC50 was determined as 0.157 µM.

As to `[N-]=[N+]=Nc1ccc(NCc2cc(CCN3C[C@H](O)[C@@H](O)[C@H](O)[C@H]3CO)cs2)c([N+](=O)[O-])c1` [Compound 1174, (2R,3R,4R,5S)-1-[2-(5-{[(4-azido-2-nitrophenyl)amino]methyl}thiophen-3-yl)ethyl]-2-(hydroxymethyl)piperidine-3,4,5-triol], the IC50 under setting [1] turned out to be 0.531 µM.

Take `[N-]=[N+]=Nc1ccc(NCCn2cc(CCN3C[C@H](O)[C@@H](O)[C@H](O)[C@H]3CO)c3ccccc32)c([N+](=O)[O-])c1` [Compound 1177, (2R,3R,4R,5S)-1-[2-(1-{2-[(4-azido-2-nitrophenyl)amino]ethyl}-1H-indol-3-yl)ethyl]-2-(hydroxymethyl)piperidine-3,4,5-triol]: under setting [1], the IC50 was determined as 0.374 µM.

In the case of `[N-]=[N+]=Nc1ccc(NCCc2cc(CCN3C[C@H](O)[C@@H](O)[C@H](O)[C@H]3CO)cs2)c([N+](=O)[O-])c1` [Compound 1179, (2R,3R,4R,5S)-1-[2-(5-{2-[(4-azido-2-nitrophenyl)amino]ethyl}thiophen-3-yl)ethyl]-2-(hydroxymethyl)piperidine-3,4,5-triol], under setting [1], the IC50 was under 0.001 µM.

With `COc1cc(CN2CCCO2)cc(NCCCCCCN2C[C@H](O)[C@@H](O)[C@H](O)[C@H]2CO)c1` [Compound 1182, (2R,3R,4R,5S)-2-(hydroxymethyl)-1-[6-({3-methoxy-5-[(1,2-oxazolidin-2-yl)methyl]phenyl}amino)hexyl]piperidine-3,4,5-triol], under setting [1], the IC50 is 0.047 µM.

Turning to `OC[C@@H]1[C@@H](O)[C@H](O)[C@@H](O)CN1CCCCCCNc1cc(Cl)cc(CN2CCCO2)c1` [Compound 1183, (2R,3R,4R,5S)-1-[6-({3-chloro-5-[(1,2-oxazolidin-2-yl)methyl]phenyl}amino)hexyl]-2-(hydroxymethyl)piperidine-3,4,5-triol], under setting [1], the IC50 was found to be 0.154 µM.
